Data from patent US7820697B2, “Compositions and method for reducing TNFα levels” (Celgene Corporation, priority 1998, dated 2010).

| melting point [°C] | SMILES |
| --- | --- |
| 235 to 236.5 | CCc1cccc2c1C(=O)N(C1CCC(=O)NC1=O)C2=O (stereo not drawn) [Example 6, 2-(2,6-Dioxo(3-piperidyl))-4-ethylisoindoline-1,3-dione] |
| 248 to 250 | Cc1cccc2c1C(=O)N(C1(C)CCC(=O)NC1=O)C2=O (stereo not drawn) [Example 10, 4-Methyl-2-(2,6-dioxo-3-methyl-(3-piperidyl))isoindoline-1,3-dione] |
| 214.5 to 216.5 | CN(C)c1cccc2c1C(=O)N(C1CCC(=O)NC1=O)C2=O (stereo not drawn) [Example 8, 4-Dimethylamino-2-(2,6-dioxo(3-piperidyl))isoindoline-1,3-dione] |
